Entries after “also recorded” stand apart in the source; their conditions may differ.
Columns and labels:
[1] = system: mouse IL-4/IL-13-induced M2 polarization; experiment: in vitro titration assay of IL-4/IL-13-induced M2 polarization; type: cell-based; conditions: at 1 μM
Description: Antibodies and flow cytometry: All antibodies used for flow cytometry were purchased from Biolegend, unless indicated. For surface staining, murine cells were stained with the following antibodies: APC-CD45.2 (109814, 1:200), PE/Cy7-CD4 (100528, 1:300), Percp/Cy5.5-CD11b (101228, 1:200), BV421-F4/80 (123137, 1:200), APC/Cy7-CD11C (117324, 1:200), PE-IL-411.a (144803 1:100), AF488-CD206 (141710, 1:100), AF700-MHCII (107622, 1:300), PB-Ly6C (128014, 1:200), PE/Cy7-Ly-6G (127617, 1:300), PE-FcεRIα (134307, 1:200), AF488-ckit (105815, 1:200), APC-eFluor780-CD45.1 (47-0453-82, eBioscience, 1:200) and PE-Siglec-F (562068, BD Biosciences, 1:200). Human cells were stained with PE/Cy7-CD14 (301814,1:100), AF488-CD206 (321114, 1:50) and APC-CD68 (333810, 1:100). […]
Cell preparation and in vitro cultures: Pancreatic leukocytes were isolated using collagenase digestion method described previously for flow cytometry analysis (Xue, J., et al. Aryl hydrocarbon receptor regulates pancreatic IL-22 production and protects mice from acute pancreatitis. Gastroenterology 143, 1670-1680 (2012)). […] Isolated PSCs were ready for use after the second passage. […] On day 6, human macrophages are ready for use (Vijayan, D. Isolation and differentiation of monocytes-macrophages from human blood. Methods Mol. Biol. 844, 183-187 (2012)). […]

E0771 tumors = experiment: syngeneic E0771 tumor model with radiation therapy; type: in vivo, C57BL/6 mice; conditions: for response to radiation therapy (tumor volume): 50 μg in 100 μL PBS daily injection combined with RT 16 Gy, versus RT alone, FIG. 8A
Procedure: Syngeneic E0771 tumors were implanted in the lower mammary gland of C57BL/6 mice and allowed to grow to approximately […]. Mice were then enrolled on study (n=5/group) and treated with either PBS (Control), IL4/13 blocking peptide CSRM53567 (50 μg in 100 μL PBS, daily injection), radiation therapy (RT) alone (16 Gy) or combination of CSRM53567 peptide and RT. Mice were measured at the indicated time points with digital calipers and the resulting volume was calculated. ** p<0.01. […] There were fewer CD4+ T cells and more CD8+ T cells as a percentage of the CD45+ leukocytes in the tumors that received radiation therapy and the IL4/13 blocking peptide compared to radiation alone. […] The cytokines and CD45+ cells were all harvested at end point which is about two weeks post-RT.

[2] = system: caerulein-induced CP mice; experiment: caerulein-induced chronic pancreatitis (CP) mouse model; type: in vivo; conditions: for pancreas fibrosis (relative pancreas weight, H&E, Trichrome, α-SMA, Collagen1A1) / alternative activation of pancreatic macrophages (CD206 expression, flow cytometry): established CP; for pancreas fibrosis (relative pancreas weight, H&E, Trichrome, α-SMA, Collagen1A1): FIG. 6A-6E; for alternative activation of pancreatic macrophages (CD206 expression, flow cytometry): FIG. 6F
Description: As indicated herein, agents that inhibit IL-4/IL-13 receptor function such as CRSM53567 will have benefit in several fibrosis and cancer diseases. In this design a commonly used model to cause chronic pancreatitis in rodents was created. In this model, the animal is given the cholecystokinin analogue, Caerulein, as a set of 6 intraperitoneal injections over a day repeated 3 times a week for 4 weeks. […] CD206 is a marker of the type II macrophage while MHCII is highly expressed on type I macrophage.
Pancreatitis model and treatment: AP was induced with caerulein injection in mice as previously described (Xue, J., et al. Aryl hydrocarbon receptor regulates pancreatic IL-22 production and protects mice from acute pancreatitis. Gastroenterology 143, 1670-1680 (2012); Xue, J. & Habtezion, A. Carbon monoxide-based therapy ameliorates acute pancreatitis via TLR4 inhibition. J. Clin. Invest. 124, 437-447 (2014)). CP was induced by repetitive caerulein injections (Lerch, M. M. & Gorelick, F. S. Models of acute and chronic pancreatitis. Gastroenterology 144, 1180-1193 (2013); Treiber, M. et al. Myeloid, but not pancreatic, RelA/p65 is required for fibrosis in a mouse model of chronic pancreatitis. Gastroenterology 141, e1471-e1477 (2011)). In brief, mice were given six hourly intraperitoneal (i.p.) injections of 50-μg kg^−1 body weight caerulein (Sigma-Aldrich) 3 days per week, for a total of 4 weeks. Mice were then killed and analyzed 3 days after the last caerulein injection. For blocking peptide study all mice were given caerulein injection 3 days per week for a total of 4 weeks as above, and 2 weeks following start of the caerulein injection mice were either given vehicle control (PBS) or IL-4/IL-13-blocking peptide ([…], 100 μl daily for 5 days per week×2 weeks) until being killed 4 weeks and 3 days later as above.
Histology and immunofluorescence: Mice were killed by CO2 inhalation, and then their pancreata were rapidly removed. Pancreas pieces were immediately fixed in 10% formalin or frozen in Tissue-Tek OCT compound. Fixed tissues were sectioned and used for haemotoxylin and eosin and Trichrome staining (performed in the Histo-Tec Laboratory). Frozen tissues were also sectioned for immunofluorescence staining with indicated antibodies and analyzed with confocal microscopy.
Antibodies and flow cytometry: All antibodies used for flow cytometry were purchased from Biolegend, unless indicated. For surface staining, murine cells were stained with the following antibodies: APC-CD45.2 (109814, 1:200), PE/Cy7-CD4 (100528, 1:300), Percp/Cy5.5-CD11b (101228, 1:200), BV421-F4/80 (123137, 1:200), APC/Cy7-CD11C (117324, 1:200), PE-IL-411.a (144803 1:100), AF488-CD206 (141710, 1:100), AF700-MHCII (107622, 1:300), PB-Ly6C (128014, 1:200), PE/Cy7-Ly-6G (127617, 1:300), PE-FcεRIα (134307, 1:200), AF488-ckit (105815, 1:200), APC-eFluor780-CD45.1 (47-0453-82, eBioscience, 1:200) and PE-Siglec-F (562068, BD Biosciences, 1:200). Human cells were stained with PE/Cy7-CD14 (301814,1:100), AF488-CD206 (321114, 1:50) and APC-CD68 (333810, 1:100). For intracellular cytokine staining, cells were activated with phorbol myristate acetate (50 ng ml^−1) and ionomycin (1 μg ml^−1), in the presence of brefeldin A (10 μg ml^−1, eBioscience) for 4h at 37° C. before staining. The cells were then fixed and permeabilized using the eBioscience kit following the manufacturer's guidelines. APC-IL10 (554468, 1:100) and isotype control (556924, 1:100) from BD Biosciences were used for intracellular staining. For intracellular TNFα staining, cells were incubated with or without lipopolysaccharide (100 ngml-1, InvivoGen) in the presence of brefeldin A before surface-staining. PE-TNFα (554419, 1:200) and isotype control (554685, 1:200) from BD Biosciences were used.
Quantitative RT-PCR: Th pancreas or cells were lysed with Trizol reagent (Invitrogen) for total RNA preparation according to the manufacturer's instructions. […]

human macrophages = experiment: M2 polarization of human macrophages by hPSC conditioned medium; type: cell-based; conditions: hPSC_CM pretreated with 1 μM, 24 h; FIG. 6G
Procedure: IL-4/IL-13-blocking peptide (IL4/13BP i.p., 50 μg per mouse, 5 days per week) was administrated to mice 2 weeks after starting CP induction and mice were killed as previous after 4 weeks of caerulein injections. […] (unpaired two-tailed Student's t-test). […] Scale bar, 200 μm. […] Scale bar: 50 μm. FIG. 6D and FIG. 6E show RT-PCR analysis of α-SMA and Col1α1 (Collagen1A1) gene expression in the pancreas of indicated mice. Means±s.e.m. (unpaired two-tailed Student's t-test). […] Means±s.e.m. (unpaired two-tailed Student's t-test). In FIG. 6G human macrophages as above were cultured with control medium (Con), conditioned medium from hPSCs (hPSC_CM) or hPSC_CM pretreated with 1 μM IL4/13BP (hPSC_CM+BP) for 24h. Expression of CD206 (% CD206^+ macrophages) was analysed using flow cytometry.
Antibodies and flow cytometry: All antibodies used for flow cytometry were purchased from Biolegend, unless indicated. […]
Cell preparation and in vitro cultures: Pancreatic leukocytes were isolated using collagenase digestion method described previously for flow cytometry analysis (Xue, J., et al. Aryl hydrocarbon receptor regulates pancreatic IL-22 production and protects mice from acute pancreatitis. Gastroenterology 143, 1670-1680 (2012)). […] Isolated PSCs were ready for use after the second passage. […]

[3] = RT plus peptide compared to radiation alone, about two weeks post-RT
[4] = chronic pancreatitis mouse model, preliminary results, FIG. 1
[5] = i.p. 50 μg per mouse, 5 days per week, started 2 weeks after starting CP induction
[6] = i.p. 50 μg per mouse, 5 days per week, started 2 weeks after starting CP induction, listed as IL-4/13-blocking peptide

Substance: TYR-CYS-ASP-ASP-PHE-VAL-GLY-SER-PHE-ASP-CYS-TYR (YCDDFVGSFDCY) [CSRM53567]
- mouse IL-4/IL-13-induced M2 polarization and CD206 expression [1]: significantly decreased
- response to radiation therapy (tumor volume) (E0771 tumors): enhances response to radiation therapy
- response to radiation therapy (tumor volume) (E0771 tumors; listed as IL-4/IL-13 blocking peptide): enhances the response to radiation therapy
- number of CD8+ T cells post radiation therapy (E0771 tumors; FIG. 8B): enhances the number of CD8+ T cells
- CD4+ T cells as a percentage of the CD45+ leukocytes in the tumors (E0771 tumors; [3]): fewer
- CD8+ T cells as a percentage of the CD45+ leukocytes in the tumors (E0771 tumors; [3]): more
- absolute number of CD45+ leukocytes (E0771 tumors; [3]): remained roughly the same
- macrophages in the tissue (FACS) ([2]; chronic pancreatitis mouse model, caerulein 3 times a week for 4 weeks, preliminary results, FIG. 1B): decreases; also recorded: reduces
- fibrosis [2, 4]: decreased fibrosis; also recorded: reduces
- tissue volume / pancreas shrinkage [2, 4]: increase; also recorded: preventing pancreas shrinkage
- pancreas fibrosis (relative pancreas weight, H&E, Trichrome, α-SMA, Collagen1A1) [2, 5]: limited pancreas fibrosis
- pancreas fibrosis (relative pancreas weight, H&E, Trichrome, α-SMA, Collagen1A1) [2, 6]: ameliorated
- alternative activation of pancreatic macrophages (CD206 expression, flow cytometry) [2, 5]: blockade of alternative activation
- alternative activation of pancreatic macrophages (CD206 expression, flow cytometry) [2, 6]: decreased
- established CP ([2]; i.p. 50 μg per mouse, 5 days per week, started 2 weeks after starting CP induction, FIG. 6): ameliorates established CP
- hPSC-mediated M2 polarization of human macrophages (% CD206+ macrophages) (human macrophages): capable of inhibiting
